Structures can show the parent of a compound that is named as a salt. Marks after values point to notes of the source that are not given here.

The values that follow come from US20120028837A1, “RAPID SCREEN FOR REPRODUCTIVE TOXICANTS” (PRESIDENT AND FELLOWS OF HARVARD COLLEGE, priority 2010, published 2012).

The subject of one series is C. elegans germline. In words: Size of mitotic zone of the germline (DAPI, phospho-histone H3 staining). The source says:
In C. elegans, the germline is comprised of two main compartments, a mitotic region (the premeiotic tip), where nuclei are under the influence of the distal tip cell that maintains them in a proliferative state; and the meiotic region, where nuclei progress through the stages of Prophase I before being fertilized. The mitotic compartment of the worm gonad following BPA exposure was examined.
(§1) BPA bears endocrine disrupting activity in many developmental contexts including gonadal, brain and mammary gland development. BPA has affinity for multiple members of the estrogen receptors family, in particular BPA binds to the human estrogen receptor alpha (ERα) and ERβ as well as estrogen-related receptor gamma (ERR-γ) and in C. elegans with nuclear hormone receptor NHR-14 which also binds estrogen. […] Two hallmarks of exposure to BPA were examined, the decrease in the size of the proliferative zone and the condensation defects observed at diakinesis, as they are both highly penetrant and consistent phenotypes. […] Similarly to the experiments described above, the size of the mitotic zone was quantified as well as condensation defects at diakinesis.
Growing Conditions and Drug Exposures. Worms were cultured according to [23] at 20° C. on NGM plates without cholesterol. […] Exposure was carried from embryogenesis to adulthood by plating sodium hypochloride treated eggs onto drug and control plates and incubated at 20° C. for four days.
Antibody Staining. DAN staining, immunostaining and analysis of stained meiotic nuclei were performed as in [25] except for ATL-1 and AIR-2 antibodies were dissected gonads were subjected to a 1% fixation method as described in [27]. […] The secondary antibodies used were: Cy3 anti-rabbit, FITC anti-guinea-pig and FITC anti-mouse (Jackson Immunochemicals), each at 1:100, Stacks of 0.2 μm slices were captured using a Leica microscope, coupled to the DeltaVision fluorescence microscope system (Applied Precision). […]

For another series, the system named is xol-1::GFP worms. In words: xol-1::GFP reporter assay for male (aneuploid) embryos. As to conditions: for male embryos in adult mid-ventral sections: 0.1 mg/ml in liquid culture, added 1 day post-L4 for 20 hours; for frequency of xol-1::GFP worms containing GFP+ eggs: 0.1 mg/ml, preliminary analysis. As to the method:
In one embodiment of the invention, synchronized cultures of worms are grown for the desired developmental period (e.g., from eggs to adulthood, 4 days) on multiwell plates (e.g., 96-well plates) containing media mixed with the compound of interest at the concentration of interest (e.g., 1 μM and 100 μM). The concentrations can be adjusted if necessary to compensate for solubility differences. Following exposure, the worms are washed off the plate with a physiological buffer and then run through a high-throughput flow cytometry device (e.g., the COPAS Biosort). With this automated nematode analysis, sorting, and dispensing platform (Furlong et al., Nat Biotechnol. 2001; 19(2):153-6; Gill et al., Free Radic Biol Med. 2003; 35(6):558-65; Rea et al., Nat Genet. 2005; 37(8):894-8. PMCID: 1479894) one 96-well plate can be screened per hour. In one embodiment, test wells are alternated with mock wells to flush the equipment in order to avoid cross-contamination. […] The worm sorter not only directs the sorting of GFP positive worms from GFP negative ones but when coupled to the Profiler analysis software, also allows for the localization of the fluorescence within the worm. In one embodiment, scoring is for GFP positive eggs present in the animal's mid-ventral section (uterus), therefore, any worms showing mis-localized GFP expression will be discarded thus improving the accuracy of the screen. Positive controls used for the screen can include colchicine and nocodazole, both described as disruptors of spindle organization and therefore of chromosome segregation (Sato A, et al., Cell. 2009; 139(5):907-19; Stear et al., Mol Biol Cell. 2004; 15(11):5187-96. PMCID: 524797).
Worms are grown from eggs to adulthood (4 days) on 96-well plates containing media mixed with the compound of interest. Initially, two different concentrations are assayed, 1 μM and 100 μM, concentrations previously used in the context of other C. elegans toxicological screens (Boyd, McBride and Freedman, 2007; Boyd et al, 2009).
Following exposure, the worms are washed off the plate with buffer and run through a high-throughput flow cytometry device, commonly known as a “worm sorter” (COPAS-Biosort from Union Biometrica). The worm sorter not only directs the sorting of GFP positive worms from GFP negative ones but when coupled to the Profiler analysis software, also allows for the localization of the fluorescence within the worm. Scoring in the screen, is for GFP positive eggs present in the animal's mid-ventral section (uterus), therefore, any worms showing mis-localized GFP expression are discounted thus improving the accuracy of the screen.
The xol-1::GFP reporter strain was tested for meiotic disruption by addition of an external agent, by exposing the C. elegans to several cell cycle disruptors (microtubule disrupting agents) dissolved in DMSO, DMSO alone was used as a negative control. Each individual test agent was added to the liquid culture medium of the C. elegans at 1 day post-L4 (4 days of development) for a total of 20 hours. The C. elegans was then analyzed for the percentage of male embryos in the adult-midventral sections. Nocodazol was added to the medium at a final concentration of 0.1 mg/ml.
Adult xol-1::GFP worms were exposed to 100 μM nocodazole for 24 hours in liquid culture and the presence of GFP+ embryos in the uterus of exposed worms was monitored.
The effect of selected chemotherapeutic agents on the generation of aneuploidies was analyzed. xol-1::GFP adult worms were exposed to the compounds at a concentration of 100 μM for 24 hours in liquid culture in triplicates.
Each well contained 750 μl of M9, the drug at a final concentration of 100 μM, concentrated bacteria and young adults+eggs. The cultures were examined at 24 hours and 4 days.
(In a reporter assay the amount or activity of a reporter protein is the signal.)

Series [1] relates to C. elegans diakinesis oocytes. In words: Diakinesis oocyte analysis (chromosome condensation, SYP-1, AIR-2, pH3). As to conditions: 1 mM E2; […] 4-HT.
Source text: Proper processing of recombination events is coupled with the formation of mature bivalents during the diakinesis stage such that in mutants where recombination intermediate processing is impaired, bivalent maturation is delayed.
Associated with the changes in chromatin morphology, the SC is disassembled during late diakinesis in a tightly controlled fashion. Accordingly, SC components, such as SYP-1, are detectable on the short arms of the bivalent in the −3 oocyte but are essentially absent from the bivalents of −2 and −1 oocytes. Thus, whether a delay in chromosome remodeling could correlate with an incomplete disassembly of SC components in late diakinesis was examined.
Accurate chromosome segregation at meiosis I is characterized by the carefully orchestrated loss of cohesion between homologs coupled with retention of cohesion between sister chromatids. This regulated process involves the targeting of the Aurora-B kinase AIR-2, a member of the chromosomal passenger complex, to the short arm of the bivalents in the −1 oocyte which has been proposed to lead to the removal the meiosis-specific cohesin REC-8 from the short arms of the bivalent. To examine whether these key steps in late meiotic prophase I might be impaired in BPA treated gonads, the localization of AIR-2 in the −1 oocytes was examined. […] Phospho histone H3 (pH3) is a canonical substrate for the activity of AIR-2 [59] and accordingly, although it accumulates in the −3 to −1 oocytes, it is only detected on the short arms of the bivalent in the −1 oocyte in the presence of AIR-2 [56, 57].
as §1
Antibody Staining. DAN staining, immunostaining and analysis of stained meiotic nuclei were performed as in [25] except for ATL-1 and AIR-2 antibodies were dissected gonads were subjected to a 1% fixation method as described in [27]. Antibodies were used at the following dilutions: rabbit α-SYP-1 (1:100), mouse α-RAD-51 (1:100), rabbit α-HTP-3 (1:500), guinea pig α-HIM-8 (1:100), rabbit α-ATL-1 (1:50), rabbit α-AIR-2 (1:100) and rabbit α-pCHK-1 (1:100). The secondary antibodies used were: Cy3 anti-rabbit, FITC anti-guinea-pig and FITC anti-mouse (Jackson Immunochemicals), each at 1:100, Stacks of 0.2 μm slices were captured using a Leica microscope, coupled to the DeltaVision fluorescence microscope system (Applied Precision). The images were projections approximately halfway through 3D data stacks of whole nuclei, except for diakinesis images which encompass entire nuclei.

A further series has as its system xol-1::LUC. In words: xol-1::luciferase reporter induction. The format is in vivo, C. elegans. The following applies: 1 μM or 100 μM for 24 hours, preliminary experiment.
Where [2] appears, read: xol-1::GFP, C. elegans, in vivo, 24 hours, 100 μM.
Setting [3] is: average over the chemicals of the category, 100 μM, 24 hours, liquid culture, triplicates.

On to 4-hydroxy-tamoxifen [4-HT], for which the “pH3 positive nuclei in mitotic zone vs control” value in the series with C. elegans germline (4 days exposure, BPA 1 mM, 4-HT […]) is listed as “two-fold decrease”.

For `Oc1ncnc2[nH]ncc12` [Allopurinol], the “Average % of worms with 1 or more GFP embryos/category” value in the series on xol-1::GFP worms (setting [2]) is 0.6%.

With `C[C@]12CC[C@@H]3c4ccc(O)cc4CC[C@H]3[C@@H]1CC[C@@H]2O` [E2, estradiol], the “increase in the number of nuclei comprising the mitotic region vs ethanol” value with C. elegans germline (1 mM E2 for 4 days, DAPI staining) is given as 13%. Moreover, the “bivalent maturation / condensation defects at diakinesis” value in series [1] is recorded as “did not cause any observable bivalent maturation defects”.

`CC[C@@]1(O)C(=O)OCc2c1cc1n(c2=O)Cc2cc3c(CN(C)C)c(O)ccc3nc2-1` [Topotecan HCl]: the “Average % of worms with 1 or more GFP embryos/category” value in the series with xol-1::GFP worms (setting [2]) stood at 3.77% *.

Regarding `CC[C@]1(O)C[C@@H]2CN(CCc3c([nH]c4ccccc34)[C@@](C(=O)OC)(c3cc4c(cc3OC)N(C)[C@H]3[C@@](O)(C(=O)OC)[C@H](OC(C)=O)[C@]5(CC)C=CCN6CC[C@]43[C@@H]65)C2)C1` [Vinblastine], in the series on xol-1::GFP worms (setting [2]), the “Average % of worms with 1 or more GFP embryos/category” value is reported as 23.3% *.

With `CC[C@]1(O)C[C@H]2CN(CCc3c([nH]c4ccccc34)[C@@](C(=O)OC)(c3cc4c(cc3OC)N(C=O)[C@H]3[C@@](O)(C(=O)OC)[C@H](OC(C)=O)[C@]5(CC)C=CCN6CC[C@]43[C@@H]65)C2)C1` [Vincristine sulfate], the “Average % of worms with 1 or more GFP embryos/category” value in the series with xol-1::GFP worms (setting [3]) was 23.3% *.

On to `CN[C@H]1CCc2cc(OC)c(OC)c(OC)c2-c2ccc(OC)c(=O)cc21` [demecolcine], for which, in the series on xol-1::GFP worms, the “male embryos in adult mid-ventral sections” value came out at 2.7% and the “frequency of xol-1::GFP worms containing GFP+ eggs” value is recorded as 3/66.

`COC(=O)Nc1nc2ccc(C(=O)c3cccs3)cc2[nH]1` [nocodazole]: in the series on xol-1::GFP worms, the “male embryos in adult mid-ventral sections” value amounted to 37% and the “frequency of xol-1::GFP worms containing GFP+ eggs” value is listed as 6/16. In the series on xol-1::GFP worms (adult worms, 100 μM, 24 hours, liquid culture), the “worms with at least one GFP+ embryo” value was determined as 55%. Besides, the “Average % of worms with 1 or more GFP embryos/category” value in the series on xol-1::GFP worms (setting [3]) is 23.3% *. Also, the “induction of luciferase compared to DMSO” value in the series with xol-1::LUC is given as “significant induction”.

As for Triethylene melamine, in the series on xol-1::GFP worms (setting [3]), the “Average % of worms with 1 or more GFP embryos/category” value came to 3.77% *.
